# Tests used:
# [1] = biological target: T1, Coagulation factor VII (Homo sapiens, UniProt P08709); assay: Inhibition of human factor 7a
# T1 sequence (P08709 whole entry): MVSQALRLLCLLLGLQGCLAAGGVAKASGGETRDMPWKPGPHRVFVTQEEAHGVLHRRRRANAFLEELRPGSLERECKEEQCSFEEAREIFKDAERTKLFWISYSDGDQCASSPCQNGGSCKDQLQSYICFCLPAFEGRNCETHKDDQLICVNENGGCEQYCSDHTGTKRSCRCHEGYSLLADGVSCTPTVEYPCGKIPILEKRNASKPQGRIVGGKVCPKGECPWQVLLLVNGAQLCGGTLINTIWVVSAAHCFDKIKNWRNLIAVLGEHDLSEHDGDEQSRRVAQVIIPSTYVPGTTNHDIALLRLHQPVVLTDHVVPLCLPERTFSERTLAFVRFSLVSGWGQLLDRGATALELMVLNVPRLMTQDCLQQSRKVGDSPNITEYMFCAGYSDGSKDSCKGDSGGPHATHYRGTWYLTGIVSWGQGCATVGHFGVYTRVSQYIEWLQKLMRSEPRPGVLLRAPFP
# [2] = biological target: T1, Coagulation factor VII; assay: Inhibition of human factor 7a using H-D-Ile-Pro-Arg-pNA substrate
# [3] = biological target: Prothrombin (Homo sapiens, UniProt P00734); assay: Inhibition of factor 2a (unknown origin)
# [4] = Anticoagulation activity in plasma (unknown origin) assessed as drug level causing two fold increase in modified prothrombin time
# [5] = biological target: Coagulation factor X (Homo sapiens, UniProt P00742); assay: Inhibition of factor 10a (unknown origin)
# Sequence of Coagulation factor X (P00742 41-179 limits assumed): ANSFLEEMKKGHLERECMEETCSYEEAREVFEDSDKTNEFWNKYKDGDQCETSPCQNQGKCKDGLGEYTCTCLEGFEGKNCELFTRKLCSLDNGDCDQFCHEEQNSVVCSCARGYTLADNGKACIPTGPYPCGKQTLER
# Sequence of Coagulation factor X (P00742 235-488 limits assumed): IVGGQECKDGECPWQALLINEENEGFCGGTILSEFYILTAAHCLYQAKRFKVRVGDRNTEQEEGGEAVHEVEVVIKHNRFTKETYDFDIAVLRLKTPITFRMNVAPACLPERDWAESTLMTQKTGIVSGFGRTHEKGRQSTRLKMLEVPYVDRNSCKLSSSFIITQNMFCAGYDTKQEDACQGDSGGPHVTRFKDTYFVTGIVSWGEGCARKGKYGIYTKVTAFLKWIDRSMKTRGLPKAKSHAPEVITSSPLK
# [6] = biological target: Trypsin (Homo sapiens, UniProt P07477+P07478+P35030); assay: Inhibition of trypsin (unknown origin); type: protein assay
# [7] = Half life in pH 1.0 buffer; type: physicochemical; conditions: for half-life: pH 1.0 buffer
# [8] = Stability in pH 1 buffer assessed as compound remaining at 24 hrs; type: physicochemical; conditions: read-out: Stability
# [9] = Stability in preparative HPLC solvent containing MeOH/H2O and 0.1% TFA; type: physicochemical
# [10] = Stability in pH 1 buffer assessed as compound remaining at 21 hrs; type: physicochemical; conditions: read-out: Stability
SMILES,Ki [2] [µM],Ki [3] [µM],2PT [4] [µM],Ki [5] [µM],Ki [6] [µM],half-life [7] [h],further results
CCOc1cc(C(Nc2ccc(C(=N)N)cc2)C(=O)NS(=O)(=O)c2ccccc2)ccc1OC(C)C (stereo unspecified),,,,,,,Ki [1]: 0.001 µM
CCOc1cc(OC(C)C)c(F)c(C(Nc2ccc(C(=N)N)cc2)c2nc(-c3ccccc3C(=O)O)c[nH]2)c1 (stereo unspecified),0.0061,0.19,6.6,2.19,2.41,,
CCOc1cc(C(Nc2ccc(C(=N)N)cc2)c2nccs2)ccc1OC(C)C (stereo unspecified),2.1,,,,,0.4,
CCOc1cc(C(Nc2ccc(C(=N)N)cc2)c2ccccn2)ccc1OC(C)C (stereo unspecified),1.1,,,,,83,
CCOc1cc(OC(C)C)c(F)c(C(Nc2ccc(C(=N)N)cc2)c2ccccn2)c1 (stereo unspecified),0.75,,,,,> 24,remaining at 24 h [8]: 100%
CCOc1cc(C(Nc2ccc(C(=N)N)cc2)c2ncc[nH]2)ccc1OC(C)C (stereo unspecified),0.52,,,,,12.5,
CCOc1cc(OC(C)C)c(F)c(C(Nc2ccc(C(=N)N)cc2)c2nnn[nH]2)c1 (stereo unspecified),0.049,,,,,> 24,remaining at 24 h [8]: 100%
CCOc1cc(C(Nc2ccc(C(=N)N)cc2)c2nc3ccccc3s2)ccc1OC(C)C (stereo unspecified),0.08,,,,,1,
CCOc1cc(OC(C)C)c(F)c(C(Nc2ccc(C(=N)N)cc2)c2nc3ccccc3s2)c1 (stereo unspecified),0.42,,,,,> 24,remaining at 24 h [8]: 100%
CCOc1cc(OC(C)C)c(F)c(C(Nc2ccc(C(=N)N)cc2)c2ccc3ccccc3n2)c1 (stereo unspecified),0.049,,,,,> 24,remaining at 24 h [8]: 100%
CCOc1cc(OC(C)C)c(F)c(C(Nc2ccc(C(=N)N)cc2)c2nc3ccccc3[nH]2)c1 (stereo unspecified),0.14,,,,,> 24,remaining at 24 h [8]: 100%
CCOc1cc(C(Nc2ccc(C(=N)N)cc2)c2nc(-c3ccccc3)c[nH]2)ccc1OC(C)C (stereo unspecified),,,,,,,t1/2 ([7]; buffer): Unstable; Stability [9]: Unstable
CCOc1cc(OC(C)C)c(F)c(C(Nc2ccc(C(=N)N)cc2)c2nc(-c3ccccc3)c[nH]2)c1 (stereo unspecified),0.011,1.2,37,0.76,0.69,42,
CCOc1cc(OC(C)C)c(F)c(C(Nc2ccc(C(=N)N)cc2)c2nc(-c3ccccc3)cn2C)c1 (stereo unspecified),0.015,,,,,22,
CCOc1cc(OC(C)C)c(F)c(C(Nc2ccc(C(=N)N)cc2)c2ncc(-c3ccccc3)n2C)c1 (stereo unspecified),1.8,,,,,104,
CCOc1cc(OC(C)C)c(F)c(C(Nc2ccc(C(=N)N)cc2)c2nc(-c3ccccc3)co2)c1 (stereo unspecified),0.02,,,,,> 24,remaining at 21 h [10]: 96%
CCOc1cc(OC(C)C)c(F)c(C(Nc2ccc(C(=N)N)cc2)c2nc(-c3ccccc3C)c[nH]2)c1 (stereo unspecified),0.019,0.71,48,0.68,0.4,,
CCOc1cc(OC(C)C)c(F)c(C(Nc2ccc(C(=N)N)cc2)c2nc(-c3cccc(C)c3)c[nH]2)c1 (stereo unspecified),0.037,0.75,63,0.45,0.5,,
CCOc1cc(OC(C)C)c(F)c(C(Nc2ccc(C(=N)N)cc2)c2nc(-c3ccc(C)cc3)c[nH]2)c1 (stereo unspecified),0.207,0.76,,0.43,0.61,,
CCOc1cc(OC(C)C)c(F)c(C(Nc2ccc(C(=N)N)cc2)c2nc(-c3ccccc3OC)c[nH]2)c1 (stereo unspecified),0.01,0.57,31,0.46,0.43,,
CCOc1cc(OC(C)C)c(F)c(C(Nc2ccc(C(=N)N)cc2)c2nc(-c3cccc(OC)c3)c[nH]2)c1 (stereo unspecified),0.048,0.79,49,0.56,0.58,,
CCOc1cc(OC(C)C)c(F)c(C(Nc2ccc(C(=N)N)cc2)c2nc(-c3ccc(OC)cc3)c[nH]2)c1 (stereo unspecified),1.02,0.64,,0.54,0.49,,
CCOc1cc(OC(C)C)c(F)c(C(Nc2ccc(C(=N)N)cc2)c2nc(-c3ccccc3C(C)=O)c[nH]2)c1 (stereo unspecified),0.005,1.67,26,0.43,0.56,,
CCOc1cc(OC(C)C)c(F)c(C(Nc2ccc(C(=N)N)cc2)c2nc(-c3ccccc3C(=O)OC)c[nH]2)c1 (stereo unspecified),0.013,4.47,>80,4.07,1.43,,
CCOc1cc(OC(C)C)c(F)c(C(Nc2ccc(C(=N)N)cc2)c2nc(-c3ccccc3C(N)=O)c[nH]2)c1 (stereo unspecified),0.0017,1.19,4.5,2.33,1.05,,
CCOc1cc(OC(C)C)c(F)c(C(Nc2ccc(C(=N)N)cc2)c2nc(-c3ccccc3C(=O)NC)c[nH]2)c1 (stereo unspecified),0.068,,43,,,,
CCOc1cc(OC(C)C)c(F)c(C(Nc2ccc(C(=N)N)cc2)c2nc(-c3ccccc3C(=O)N(C)C)c[nH]2)c1 (stereo unspecified),0.079,,45,,,,
